Assay: mn = molality of the nth substance listed, in mol/kg
Settings: 101 kPa, Liquid, Alternating current cell with electrodes

CCCCCCCC[N+](C)(C)CCCCCCCCCCCC[N+](C)(C)CCCCCCCC.[Br-].[Br-] + O
Settings	electrical conductivity [S/m]
288.15 K, m1 = 0.00524	0.0948
288.15 K, m1 = 0.00825	0.1292
288.15 K, m1 = 0.01026	0.1522
288.15 K, m1 = 0.01325	0.1863
288.15 K, m1 = 0.01696	0.2286
288.15 K, m1 = 0.01986	0.2617
288.15 K, m1 = 0.02257	0.2928
288.15 K, m1 = 0.02469	0.3169
288.15 K, m1 = 0.0276	0.3349
288.15 K, m1 = 0.03026	0.3455
288.15 K, m1 = 0.03258	0.3547
288.15 K, m1 = 0.03485	0.3637
288.15 K, m1 = 0.03697	0.3722
288.15 K, m1 = 0.03965	0.3828
288.15 K, m1 = 0.0414	0.3897
288.15 K, m1 = 0.04287	0.3956
288.15 K, m1 = 0.04499	0.404
288.15 K, m1 = 0.04668	0.4107
288.15 K, m1 = 0.04802	0.416
288.15 K, m1 = 0.04996	0.4237
288.15 K, m1 = 0.05094	0.4276
288.15 K, m1 = 0.05281	0.435
288.15 K, m1 = 0.0543	0.441
288.15 K, m1 = 0.0552	0.4446
288.15 K, m1 = 0.05651	0.4497
288.15 K, m1 = 0.05808	0.456
288.15 K, m1 = 0.05949	0.4616
288.15 K, m1 = 0.06045	0.4654
288.15 K, m1 = 0.06136	0.469
288.15 K, m1 = 0.06193	0.4713
293.15 K, m1 = 0.00394	0.05156
293.15 K, m1 = 0.00765	0.1034
293.15 K, m1 = 0.01114	0.1525
293.15 K, m1 = 0.01444	0.1943
293.15 K, m1 = 0.01756	0.229
293.15 K, m1 = 0.02051	0.2582
293.15 K, m1 = 0.02331	0.2806
293.15 K, m1 = 0.02597	0.3012
293.15 K, m1 = 0.0285	0.316
293.15 K, m1 = 0.03091	0.3286
293.15 K, m1 = 0.0332	0.3423
293.15 K, m1 = 0.03539	0.3542
293.15 K, m1 = 0.03749	0.3651
293.15 K, m1 = 0.03949	0.3739
293.15 K, m1 = 0.0414	0.3836
293.15 K, m1 = 0.04323	0.3916
293.15 K, m1 = 0.04499	0.4007
293.15 K, m1 = 0.04668	0.4081
293.15 K, m1 = 0.0483	0.4165
293.15 K, m1 = 0.04986	0.4238
293.15 K, m1 = 0.05136	0.4302
293.15 K, m1 = 0.05281	0.436
293.15 K, m1 = 0.0542	0.4419
293.15 K, m1 = 0.05554	0.4484
293.15 K, m1 = 0.05683	0.4533
293.15 K, m1 = 0.05808	0.4587
293.15 K, m1 = 0.05929	0.4642
293.15 K, m1 = 0.06045	0.4689
293.15 K, m1 = 0.06158	0.4733
293.15 K, m1 = 0.06267	0.4778
298.15 K, m1 = 0.00394	0.04358
298.15 K, m1 = 0.00765	0.1152
298.15 K, m1 = 0.01115	0.1707
298.15 K, m1 = 0.01445	0.2175
298.15 K, m1 = 0.01541	0.2303
298.15 K, m1 = 0.01634	0.2425
298.15 K, m1 = 0.01727	0.2535
298.15 K, m1 = 0.01818	0.2637
298.15 K, m1 = 0.01907	0.2737
298.15 K, m1 = 0.01995	0.2808
298.15 K, m1 = 0.02081	0.2903
298.15 K, m1 = 0.02167	0.2984
298.15 K, m1 = 0.0225	0.306
298.15 K, m1 = 0.02333	0.3152
298.15 K, m1 = 0.02414	0.3211
298.15 K, m1 = 0.02494	0.3283
298.15 K, m1 = 0.02573	0.3337
298.15 K, m1 = 0.02651	0.3387
298.15 K, m1 = 0.02727	0.3443
298.15 K, m1 = 0.02802	0.349
298.15 K, m1 = 0.02877	0.3546
298.15 K, m1 = 0.0295	0.36
298.15 K, m1 = 0.03022	0.3649
298.15 K, m1 = 0.0314	0.3728
298.15 K, m1 = 0.03255	0.382
298.15 K, m1 = 0.03367	0.3883
298.15 K, m1 = 0.03477	0.3965
298.15 K, m1 = 0.03689	0.4084
298.15 K, m1 = 0.03892	0.4221
298.15 K, m1 = 0.04086	0.4336
298.15 K, m1 = 0.04272	0.4435
298.15 K, m1 = 0.0445	0.4525
298.15 K, m1 = 0.04621	0.4635
298.15 K, m1 = 0.04785	0.4712
298.15 K, m1 = 0.04943	0.4799
298.15 K, m1 = 0.05094	0.489
298.15 K, m1 = 0.0524	0.4951
298.15 K, m1 = 0.05381	0.5029
298.15 K, m1 = 0.05517	0.5103
298.15 K, m1 = 0.05648	0.5162
298.15 K, m1 = 0.05774	0.5226
303.15 K, m1 = 0.00388	0.06075
303.15 K, m1 = 0.00752	0.1306
303.15 K, m1 = 0.01257	0.2181
303.15 K, m1 = 0.01415	0.2351
303.15 K, m1 = 0.01508	0.2505
303.15 K, m1 = 0.01599	0.2653
303.15 K, m1 = 0.01688	0.2779
303.15 K, m1 = 0.01776	0.2879
303.15 K, m1 = 0.01863	0.2986
303.15 K, m1 = 0.01948	0.3128
303.15 K, m1 = 0.02031	0.321
303.15 K, m1 = 0.02194	0.3372
303.15 K, m1 = 0.02274	0.3504
303.15 K, m1 = 0.02352	0.3547
303.15 K, m1 = 0.02429	0.3646
303.15 K, m1 = 0.02505	0.3691
303.15 K, m1 = 0.02652	0.3816
303.15 K, m1 = 0.02725	0.3867
303.15 K, m1 = 0.02796	0.3925
303.15 K, m1 = 0.02866	0.398
303.15 K, m1 = 0.02935	0.4046
303.15 K, m1 = 0.03003	0.4126
303.15 K, m1 = 0.03114	0.4192
303.15 K, m1 = 0.03222	0.4277
303.15 K, m1 = 0.03327	0.4359
303.15 K, m1 = 0.0343	0.4466
303.15 K, m1 = 0.03531	0.4517
303.15 K, m1 = 0.03629	0.4591
303.15 K, m1 = 0.03725	0.4681
303.15 K, m1 = 0.03819	0.4739
303.15 K, m1 = 0.03911	0.4794
303.15 K, m1 = 0.04	0.4859
303.15 K, m1 = 0.04174	0.4978
303.15 K, m1 = 0.0434	0.5113
303.15 K, m1 = 0.04498	0.5211
303.15 K, m1 = 0.04651	0.5314
303.15 K, m1 = 0.04797	0.5413
303.15 K, m1 = 0.04938	0.5513
303.15 K, m1 = 0.05073	0.56
303.15 K, m1 = 0.05203	0.5681
303.15 K, m1 = 0.05328	0.5759
303.15 K, m1 = 0.05448	0.5835
308.15 K, m1 = 0.00358	0.06093
308.15 K, m1 = 0.00694	0.1384
308.15 K, m1 = 0.01011	0.2008
308.15 K, m1 = 0.01163	0.23
308.15 K, m1 = 0.01311	0.2551
308.15 K, m1 = 0.01539	0.2922
308.15 K, m1 = 0.01622	0.3053
308.15 K, m1 = 0.01704	0.3166
308.15 K, m1 = 0.01784	0.3262
308.15 K, m1 = 0.01863	0.3371
